Assay results: patent publication US10369129B2, “Long acting pharmaceutical composition of protease inhibitor” (TaiMed Biologics, Inc., priority 2016, dated 2019)

Legend:
[1] = biological target: HIV-1 protease (Human immunodeficiency virus type 1 group M subtype B, UniProt P04585); format: cell-based; settings: antiviral studies
[2] = system: PI-resistant strains; experiment: cross-resistance studies against 63 PI-resistant strains; format: cell-based, HIV; settings: compared with approved protease inhibitors
[3] = system: laboratory-adapted virus; experiment: 48-week resistance selection study and site-directed mutagenesis in vitro; format: cell-based, HIV
Experimental: A 48-week resistance selection study was performed by increasing the concentrations of TMB-607 against a laboratory-adapted virus in vitro.

[4] = solubility; format: physicochemical
[5] = system: HIV; settings: cited from earlier work

Compound: COC(=O)NC(C(=O)NCCCCC(CO)N(CC(C)C)S(=O)(=O)c1ccc(N)cc1)C(c1ccccc1)c1ccccc1 (stereo not drawn) [TMB-607]
- inhibiting the HIV-1 protease [1]: effective and selective
- levels of reduced susceptibility [2]: lower levels of reduced susceptibility than any of approved Protease inhibitors (PIs)
- mutations selected in the protease open reading frame ([3]; 48 weeks, increasing concentrations of TMB-607, laboratory-adapted virus in vitro): Four mutations in the protease open reading frame were selected
- resistance conferred by single mutations ([3]; site-directed mutagenesis, in vitro): single mutations did not result in significant resistance
- solubility [4]: poor
- protein binding-adjusted antiviral activity EC50 [5]: 0.023 µg/mL
